From patent US10369153B2, “Pyrrolopyrimidine compounds and uses thereof” (HUTCHISON MEDIPHARMA LIMITED, priority 2010, dated 2019) come the findings set out here.

In general, inhibition refers to how much of the control response was suppressed. As a reminder, the IC50 is the concentration at which inhibition is half-maximal.

Test [1] concerns the target Recombinant human JAK1 catalytic domain (Homo sapiens (Human), UniProt P23458). The experiment in a line: JAK1 kinase assay (Z'-LYTE, Tyr 6 Peptide). Format: biochemical. To be noted: 0.3 uM concentration, read-out: inhibition percentage (IR %). The procedure:
JAK1/2/3 kinase assay are performed in vitro using Kit-Tyr 6 Peptide (Invitrogen, Cat. No. PV4122). TYK2 kinase assay are performed in vitro using Z′-LYTE™ Kinase Assay Kit-Tyr 3 Peptide (Invitrogen, Cat. No. PV3192). […] All compounds are initially tested at 8 different concentrations (1 μM down to 0.0003 μM) using a 1:3 serial dilution scheme.

The subject of test [2] is IL-6-induced STAT3 phosphorylation. The experiment in a line: IL-6-induced STAT3 phosphorylation in HepG2 cells. Format: cell-based. To be noted: Homo sapiens, IL-6 stimulation, read-out: pSTAT3 IC50. The procedure: For the determination of IL-6-induced STAT3 phosphorylation, HepG2 cells (SIBS) are seeded in 96 well plates at 5.4×10^3 cells per well in Serum Free DMEM media overnight and incubated in the presence or absence of various concentrations of diluted compound for 30 min at 37° C., 5% CO2. Cells were stimulated by adding 10 ng/ml human recombinant IL-6 to each well for 15 minutes at 37° C., 5% CO2. Cells are then fixed in 2% paraformaldehyde for 45 minutes at room temperature and incubated in ice-cold methanol for 30 minutes. After washing in PBS, cells are incubated with rabbit anti-phospho-STAT3 (Y705) (Cell Signaling Technologies, 1:1000 in antibody dilution solution) primary antibody overnight at 4° C. Goat anti-rabbit IgG Alexa 488 (Invitrogen, 1:1,000 dilution in PBS) secondary antibody is added for 90 minutes prior to PBS washes. Cells are counted following incubation in a 7.5 uM propidium iodide, 100 μg/ml RNaseA, PBS solution for 60 minutes in the dark. Plates are read on an Acumen X3 instrument (TPP Labtech).
(§1) Percent inhibition is calculated using the following formula: Inhibition (%)=100−((inhibitor treatment−cell)/(stimulator−cell))×100 […]

The subject of test [3] is IL-3-induced STAT5 phosphorylation. The experiment in a line: IL-3-induced STAT5 phosphorylation in TF-1 cells. In kind it is cell-based. To be noted: Homo sapiens, IL-3 stimulation, read-out: pSTAT5 IC50. As to the method:
For the determination of IL-3-induced STAT5 phosphorylation, TF-1 cells (ATCC) are plated in 96 well plates at 1×10^4 cells per well in 10% FBS RPMI-1640 media at 37° C., 5% CO2 for 3 hours. Cells were incubated in the presence or absence of various concentrations of diluted compound for 30 min at 37° C., 5% CO2. Cells were stimulated by adding 10 ng/ml human recombinant IL-3 to each well for 30 minutes at 37° C., 5% CO2. Cells are then fixed in 2% paraformaldehyde for 45 minutes at room temperature and incubated in ice-cold methanol for 30 minutes. After washing in PBS, cells are incubated with rabbit anti-phospho-STAT5 (Y694) (Cell Signaling Technologies, 1:1000 in antibody dilution solution) primary antibody overnight at 4° C. Goat anti-rabbit IgG Alexa 488 (Invitrogen, 1:1,000 dilution in PBS) secondary antibody is added for 90 minutes prior to PBS washes. Cells are counted following incubation in a 7.5 uM propidium iodide, 100 μg/ml RNaseA, PBS solution for 60 minutes in the dark. Plates are read on an Acumen X3 instrument (TPP Labtech).
as §1

Chain of Recombinant human JAK1 catalytic domain (P23458 875-1153): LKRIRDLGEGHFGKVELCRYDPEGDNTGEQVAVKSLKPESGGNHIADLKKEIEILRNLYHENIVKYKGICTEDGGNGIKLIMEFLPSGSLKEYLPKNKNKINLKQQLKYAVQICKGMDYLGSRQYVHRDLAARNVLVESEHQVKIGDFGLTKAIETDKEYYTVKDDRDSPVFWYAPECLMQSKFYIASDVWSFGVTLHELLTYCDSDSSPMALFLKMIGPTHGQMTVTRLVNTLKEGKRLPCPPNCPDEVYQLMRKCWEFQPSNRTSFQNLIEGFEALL

For `CN(c1ccc(C(=O)N[C@@H](CO)c2ccccc2)cn1)[C@@H]1CCN(c2ncnc3[nH]ccc23)C1` [Compound 176], in test [1], the inhibition at 0.3 µM lay within 50 to 100%. With `CN(c1ccc(C(=O)Nc2nccs2)cn1)[C@@H]1CCN(c2ncnc3[nH]ccc23)C1` [Compound 199], the IC50 in test [2] amounted to 50 nM; in test [3], 7.55 µM. In test [1], the inhibition at 0.3 µM lay within 50 to 100%. For `CN(C(=O)c1ccc(N(C)[C@@H]2CCN(c3ncnc4[nH]ccc34)C2)nc1)[C@@H](CO)c1ccccc1` [Compound 200], the inhibition at 0.3 µM in test [1] was in the range of 20 to 50%.
